# ChEMBL document CHEMBL4043274, “4-Hydroxy-2-pyridones: Discovery and evaluation of a novel class of antibacterial agents targeting DNA synthesis” (Bioorg Med Chem Lett, 2017)
# Activity calls are given as the source filed them. No cut-off for these calls is given here.
# Assays:
# Escherichia coli [1] = assay: Antibacterial activity against Escherichia coli BAS849 by CLSI M100-S17 protocol based method; type: functional
# Escherichia coli [2] = assay: Antibacterial activity against wild-type Escherichia coli ATCC 25922 by CLSI M100-S17 protocol based method; type: functional
# Escherichia coli [3] = assay: Antibacterial activity against wild-type Escherichia coli ATCC 25922 in presence of human serum albumin by CLSI M100-S17 protocol based method; type: functional
# [4] = Selectivity ratio of MIC for wild-type Escherichia coli ATCC 25922 to MIC for Escherichia coli BAS849; type: functional
# Escherichia coli [5] = assay: Antibacterial activity against quinolone resistant Escherichia coli SKM18 by CLSI M100-S17 protocol based method; type: functional
# Staphylococcus aureus [6] = assay: Antibacterial activity against multidrug resistant Staphylococcus aureus by broth microdilution assay; type: functional
# Escherichia coli [7] = assay: Antibacterial activity against wild-type Escherichia coli ATCC 25922 infected in iv dosed CD-1 mouse assessed as mouse survival treated for 1 hr followed by reinfection with bacteria measured at 96 hrs post infection; type: functional; details: ATCC 25922, iv, read-out: PD50
# Escherichia coli [8] = assay: Ratio of MIC in presence to absence of HSA for wild-type Escherichia coli ATCC 25922; type: functional
# Acinetobacter baumannii = assay: Antibacterial activity against Acinetobacter baumannii ATCC BAA-747 by CLSI M100-S17 protocol based method; type: functional
# Staphylococcus aureus [9] = assay: Inhibition of DNA synthesis in wild-type Staphylococcus aureus ATCC 29213 at MIC; type: functional
# Staphylococcus aureus [10] = assay: Inhibition of protein synthesis in wild-type Staphylococcus aureus ATCC 29213 at 1.6 ug/ml; type: functional
# Staphylococcus aureus [11] = assay: Antibacterial activity against wild-type Staphylococcus aureus ATCC 29213 by CLSI M100-S17 protocol based method; type: functional
# [12] = Inhibition of DNA gyrase-A in Escherichia coli ATCC 25922 using relaxed pBR322 DNA as substrate after 30 mins by ethidium bromide staining based agarose gel electrophoresis method
# Klebsiella pneumoniae = assay: Antibacterial activity against Klebsiella pneumoniae ATCC 35657 by CLSI M100-S17 protocol based method; type: functional
# [13] = system: Escherichia coli ATCC 25922; assay: (§1) Inhibition of Escherichia coli ATCC 25922 topoisomerase-4 ParC at 100 uM using kinetoplast DNA as substrate after 60 mins relative to control
# Rattus norvegicus = assay: Dose normalized AUC (0 to 24 hrs) in Sprague-Dawley rat at 5 mg/kg, iv administered as single dose; type: ADME, organism-based; details: in vivo
# [14] = Protein binding in mouse plasma; type: ADME, cell-free; details: read-out: PPB (converted)
# [15] = Volume of distribution at steady state in Sprague-Dawley rat at 5 mg/kg, iv administered as single dose; type: ADME, organism-based; details: in vivo, read-out: Vdss
# [16] = as §1
# [17] = Oral bioavailability in Sprague-Dawley rat; type: ADME, organism-based; details: in vivo
# [18] = Terminal half life in Sprague-Dawley rat at 5 mg/kg, iv administered as single dose; type: ADME, organism-based; details: in vivo, read-out: beta t1/2 (converted)
# Escherichia coli [19] = assay: Antibacterial activity against clinical isolates of Escherichia coli by broth microdilution assay; type: functional
structure (smiles),measurement,setting,value
CCc1c(-c2ccc(N(C)C)cc2C)[nH]c(=O)c(C(=O)O)c1O,MIC,Escherichia coli [1],6.3 µg/mL
same,MIC,Escherichia coli [2],> 12.5 µg/mL
CCc1c(-c2ccc(N(C)C)cc2)[nH]c(=O)c(C(=O)O)c1OC,MIC,Escherichia coli [1],12.5 µg/mL
same,MIC,Escherichia coli [2],> 12.5 µg/mL
CCc1c(-c2ccc(N(C)C)c(OC)c2)[nH]c(=O)c(C(=O)O)c1O,MIC,Escherichia coli [1],6.3 µg/mL
same,MIC,Escherichia coli [2],> 12.5 µg/mL
CCc1c(-c2ccc(N3CC=CC3)cc2)[nH]c(=O)c(C(=O)O)c1O,MIC,Escherichia coli [3],32.2 µg/mL
same,Selectivity ratio,[4],> 50
same,MIC,Escherichia coli [5],> 62.5 µg/mL
same,MIC,Escherichia coli [1],0.01 µg/mL
same,MIC,Escherichia coli [2],0.78 µg/mL
COc1c(N2C[C@@H]3CCCN[C@@H]3C2)c(F)cc2c(=O)c(C(=O)O)cn(C3CC3)c12 [MOXIFLOXACIN],MIC50,Staphylococcus aureus [6],4 µg/mL
same,MIC90,Staphylococcus aureus [6],32 µg/mL
same,ED50,Escherichia coli [7],< 3 mg/kg
CCc1c(-c2ccc(N3CCC(C)(CN)C3)cc2)[nH]c(=O)c(C(=O)O)c1O (centres undefined),Ratio,Escherichia coli [8],4 - 8
same,MIC,Escherichia coli [5],6.3 µg/mL
same,MIC,Escherichia coli [1],0.39 µg/mL
same,MIC,Escherichia coli [2],1.6 µg/mL
CCc1c(-c2ccc(N(C)C)cc2F)[nH]c(=O)c(C(=O)O)c1O,MIC,Escherichia coli [1],≤ 0.2 µg/mL
same,MIC,Escherichia coli [2],> 12.5 µg/mL
CCc1c(-c2ccc(N3C[C@@H]4[C@H](C3)[C@H]4N(C)C)cc2)[nH]c(=O)c(C(=O)O)c1O,MIC,Escherichia coli [3],> 12.5 µg/mL
same,Ratio,Escherichia coli [8],4 - 8
same,MIC,Escherichia coli [5],12.5 µg/mL
same,MIC,Escherichia coli [1],0.25 µg/mL
same,MIC,Escherichia coli [2],6.3 µg/mL
same,MIC,Acinetobacter baumannii,> 12.5 µg/mL
CN(C)c1ccc(-c2[nH]c(=O)c(C(=O)O)c(O)c2C2CCCCC2)cc1,MIC,Escherichia coli [1],6.25 µg/mL
same,MIC,Escherichia coli [2],> 62.5 µg/mL
CCc1c(-c2ccc(N3CC(N)C4(CC4)C3)cc2)[nH]c(=O)c(C(=O)O)c1O (centres undefined),MIC,Escherichia coli [5],6.3 µg/mL
same,MIC,Escherichia coli [1],0.78 µg/mL
same,MIC,Escherichia coli [2],3.1 µg/mL
CCc1c(-c2ccc(N(C)C)c(C)c2)[nH]c(=O)c(C(=O)O)c1O,MIC,Escherichia coli [1],1.6 µg/mL
same,MIC,Escherichia coli [2],> 12.5 µg/mL
CCc1c(O)c(C(=O)O)c(=O)n(Cc2ccccc2)c1-c1ccc(N(C)C)cc1,inhibition,Staphylococcus aureus [9],Active
same,inhibition,Staphylococcus aureus [10],Active
same,MIC,Staphylococcus aureus [11],1.6 µg/mL
same,MIC,Escherichia coli [2],> 12.5 µg/mL
CCn1cc(C(=O)O)c(=O)cc1-c1ccc(N(C)C)cc1,MIC,Escherichia coli [5],> 62.5 µg/mL
same,MIC,Escherichia coli [1],0.39 µg/mL
same,MIC,Escherichia coli [2],6.3 µg/mL
CCc1c(-c2ccc(N(C)C)cc2)[nH]c(=O)c(C(=O)O)c1O,MIC,Escherichia coli [3],> 25 µg/mL
same,IC50,[12],11000 nM
same,inhibition,Staphylococcus aureus [9],Active
same,MIC,Klebsiella pneumoniae,3.9 µg/mL
same,MIC,Escherichia coli [5],15.6 µg/mL
same,MIC,Escherichia coli [1],0.03 µg/mL
same,inhibition,[13],30%
same,MIC,Staphylococcus aureus [11],3.1 µg/mL
same,MIC,Escherichia coli [2],0.78 to 0.8 µg/mL
same,MIC,Acinetobacter baumannii,6.3 µg/mL
Cc1c(-c2ccc(N(C)C)cc2)[nH]c(=O)c(C(=O)O)c1O,MIC,Escherichia coli [5],3.1 µg/mL
same,MIC,Escherichia coli [1],0.39 µg/mL
same,MIC,Escherichia coli [2],31.3 µg/mL
CCc1c(-c2ccc(N3CCC(CNC)C3)cc2)[nH]c(=O)c(C(=O)O)c1O (centres undefined),MIC,Escherichia coli [3],6.3 µg/mL
same,Ratio,Escherichia coli [8],4 - 8
same,MIC,Klebsiella pneumoniae,6.3 µg/mL
same,MIC,Escherichia coli [5],7.8 µg/mL
same,MIC,Escherichia coli [1],0.39 µg/mL
same,MIC,Escherichia coli [2],1.6 µg/mL
same,MIC,Acinetobacter baumannii,12.5 µg/mL
CCc1c(-c2ccc(N3CCC(C4(N)CCC4)C3)cc2)[nH]c(=O)c(C(=O)O)c1O (centres undefined),MIC,Escherichia coli [3],12.5 µg/mL
same,Ratio,Escherichia coli [8],4 - 8
same,MIC,Klebsiella pneumoniae,1.6 µg/mL
same,MIC,Escherichia coli [5],0.19 µg/mL
same,MIC,Escherichia coli [1],0.39 µg/mL
same,MIC,Escherichia coli [2],1.6 µg/mL
same,MIC,Acinetobacter baumannii,3.1 µg/mL
CCc1c(-c2ccc(N3CCC(C4(N)CC4)C3)cc2)[nH]c(=O)c(C(=O)O)c1O (centres undefined),MIC,Escherichia coli [3],12.5 µg/mL
same,Ratio,Escherichia coli [8],4 - 8
same,MIC,Klebsiella pneumoniae,3.1 µg/mL
same,MIC,Escherichia coli [1],0.39 µg/mL
same,MIC,Escherichia coli [2],1.6 µg/mL
same,MIC,Acinetobacter baumannii,3.1 µg/mL
CCc1c(-c2ccc(N3C[C@@H]4[C@@H](N)[C@@H]4C3)cc2)[nH]c(=O)c(C(=O)O)c1O,MIC,Escherichia coli [3],0.78 µg/mL
same,AUC/dose,Rattus norvegicus,30.7 µg·h/mL
same,fraction unbound,[14],0.12
same,IC50,[12],770 nM
same,MIC,Staphylococcus aureus [6],0.5 to 8 µg/mL
same,MIC50,Staphylococcus aureus [6],1 µg/mL
same,MIC90,Staphylococcus aureus [6],8 µg/mL
same,MIC,Klebsiella pneumoniae,0.39 µg/mL
same,MIC,Escherichia coli [5],12.5 µg/mL
same,MIC,Escherichia coli [1],0.049 µg/mL
same,Vd,[15],0.54 L/kg
same,IC50,[16],2400 nM
same,bioavailability,[17],17%
same,half-life,[18],2.9 h
same,ED50,Escherichia coli [7],8 mg/kg
same,MIC,Escherichia coli [2],0.19 µg/mL
same,MIC50,Escherichia coli [19],0.25 µg/mL
same,MIC90,Escherichia coli [19],8 µg/mL
same,MIC,Acinetobacter baumannii,0.78 µg/mL
CN(C)c1ccc(-c2[nH]c(=O)c(C(=O)O)c(O)c2Cc2ccccc2)cc1,MIC,Escherichia coli [1],> 12.5 µg/mL
same,MIC,Escherichia coli [2],> 12.5 µg/mL
O=C(O)c1cn(C2CC2)c2cc(N3CCNCC3)c(F)cc2c1=O [CIPROFLOXACIN],MIC,Staphylococcus aureus [6],0.125 to 64 µg/mL
same,MIC50,Staphylococcus aureus [6],64 µg/mL
same,MIC90,Staphylococcus aureus [6],> 64 µg/mL
CN(C)c1ccc(-c2[nH]c(=O)c(C(=O)O)c(O)c2C2CC2)cc1,MIC,Escherichia coli [1],1.56 µg/mL
same,MIC,Escherichia coli [2],> 62.5 µg/mL
